Reference: patent US20070079447A1, “Insect repellent textile” (Beiersdorf AG, priority 2003, published 2007)
One block for each molecule: values may come before it.

Tests used:
[1] = Polarity: interfacial tension toward water; format: physicochemical;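 also: polarity expressed as oil–water interfacial tension in mN/m, lower values meaning a more polar oil, with medium-polar lipids falling between 20 and 30 mN/m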
Description: For the purposes of the present invention, lipids are regarded as being polar if their interfacial tension toward water is less than 20 mN/m, and as nonpolar if their interfacial tension toward water is more than 30 mN/m. Lipids with an interfacial tension toward water between 20 and 30 mN/m are generally referred to as medium-polar.

[2] = test system: insects; settings: cited from earlier work; for Effectiveness (literature and manufacturer details): pests repelled, table of further repellents

Molecule: PEG 2 Diethylene hexanoate [Dermol 488]
Polarity ([1]; polar lipids): 10.1 mN/m

Molecule: O1[SiH2]O[SiH2]O[SiH2]O[SiH2]O[SiH2]1 (stereo not drawn) [Dow Corning Fluid 245, Cyclopentasiloxane]
Polarity ([1]; nonpolar lipids): 32.3 mN/m | Polarity ([1]; silicone oils): 32.3 mN/m

Molecule: COC(=O)C1C2C=CC(C2)C1C(=O)OC (stereo not drawn) [Dimethyl carbate]
Effectiveness (literature and manufacturer details) [2]: mosquitoes, in particular of the Aedes species^1

Molecule: CC(C)CCCCCCCOC(=O)CC(C)CC(C)(C)C (stereo not drawn) [Dermol 109, Isodecyl 3,5,5 Trimethyl Hexanoate]
Polarity ([1]; medium-polar lipids): 29.1 mN/m

Molecule: CCCCCCCC(=O)N(CC)CC [N,N-Diethyl caprylamide]
Effectiveness (literature and manufacturer details) [2]: cockroaches, mosquitoes, house files, horse-flies, ants, arachnids

Molecule: Isocetyl Palmitate [Tegosoft HP]
Polarity ([1]; nonpolar lipids): 36.2 mN/m

Molecule: CC(C)CCCCCCCCCCCCCCC(=O)O.CC(O)CO [Emerest 2384, Propylene Glycol Monoisostearate]
Polarity ([1]; polar lipids): 6.2 mN/m

Molecule: CCN(CC)C(=O)c1cccc(C)c1 [DEET, N,N-diethyl-3-methylbenzamide]
effective against (pests repelled) [2]: mosquitoes, horse-flies, sand-flies, ticks, biting flies, mites, fleas and bugs

Molecule: CCCCCCCCCCC(CO)CCCCCCCC (stereo not drawn) [Eutanol G, Octyldodecanol]
Polarity ([1]; medium-polar lipids): 24.8 mN/m

Molecule: COC(=O)c1ccccc1C(=O)OC [Dimethyl phthalate]
effective against (pests repelled) [2]: mosquitoes (in particular Aedes and Anopheles species)

Molecule: Dioctylcyclohexane [Cetiol S]
Polarity ([1]; nonpolar lipids): 39.0 mN/m

Molecule: O=CC12CC=CCC1C1CC=CCC1O2 (stereo not drawn) [2,3;4,5-bis(2-Butylene)tetrahydro-2-furaldehyde]
Effectiveness (literature and manufacturer details) [2]: cockroaches and biting insects^1

Molecule: CCCCC(CC)CN1C(=O)C2C3C=CC(C3)C2C1=O (stereo not drawn) [N-Octylbicycloheptenedicarboximide]
Effectiveness (literature and manufacturer details) [2]: synergist^2

Molecule: CCCCN(CCC(=O)OCC)C(C)=O [Repellent 3535, ethyl 3-(N-n-butyl-N-acetylamino)propionate]
effective against (pests repelled) [2]: mosquitoes (Aedes aegypti, Anopheles albimanus), tsetse flies (Glossinae) and horse-flies (Tabanidae)

Molecule: CCCCCCC(CCCC)C(=O)O (stereo not drawn) [Isocarb 12, Butyl Octanoic acid]
Polarity ([1]; medium-polar lipids): 22.1 mN/m

Molecule: CCCCOCCOCCOCc1cc2c(cc1CCC)OCO2 [Piperonyl butoxide]
Effectiveness (literature and manufacturer details) [2]: synergist^2

Molecule: CCCC(O)C(CC)CO (stereo not drawn) [2-Ethylhexane-1,3-diol]
Effectiveness (literature and manufacturer details) [2]: mosquitoes, horse-flies, flies, fleas, mites^1

Other lines, results leading:

Polarity ([1]; polar lipids): 2.4 mN/m
Molecule: Triisostearin [Prisorine 2041 GTIS]

Polarity ([1]; medium-polar lipids): 22.1 mN/m
Molecule: CCCCCCCCCCCCCC(=O)OCC(CCCCCCCC)CCCCCCCCCC (stereo not drawn) [M.O.D., Octyldodecyl Myristate]

Polarity ([1]; polar lipids): 14.3 mN/m
Molecule: CCCCOC(=O)CCCCC(=O)OCCCC [Cetiol B, Dibutyl Adipate]

Polarity ([1]; medium-polar lipids): 21.9 mN/m
Molecule: CCCCCCCCCCCCCCCCCC(=O)OC(C)C [Isopropyl stearate, Isopropyl Stearate]

Polarity ([1]; medium-polar lipids): 26.2 mN/m
Molecule: CCCCC(CC)C(=O)OCCC(C)CC(C)(C)C (stereo not drawn) [Dermol 98, 2-Ethylhexanoic acid 3,5,5-Trimethyl ester]

Polarity ([1]; medium-polar lipids): 29.2 mN/m
Molecule: CCCCCCOCCCCCC [Dihexyl Ether]

Polarity ([1]; nonpolar lipids): 40.5 mN/m
Molecule: CCCCCCCC/C=C\CCCCCCCC(=O)OCCOCCOCC [Softcutol O, Ethoxydiglycol Oleate]

Polarity ([1]; medium-polar lipids): 29.9 mN/m
Molecule: CC(C)CCCCCCCOC(=O)C(C)(C)C [DUB VCI 10, Isodecyl Neopentanoate]

Polarity ([1]; nonpolar lipids): 30.9 mN/m
Molecule: CCCCCCCC(=O)OC(=O)CCCCCCC [Cetiol OE, Dicaprylyl Ether]

Polarity ([1]; medium-polar lipids): 24.5 mN/m
Molecule: Isotridecyl 3,5,5 Trimethylhexanonanoate [Dermol 139]

Polarity ([1]; medium-polar lipids): 29.6 mN/m
Molecule: CCCCCCCC(=O)OCCCCCCCC(C)C [Dermol 108, Isodecyl Octanoate]

Polarity ([1]; nonpolar lipids): 31.1 mN/m
Molecule: CC(CCOC(=O)CC(C)CC(C)(C)C)CC(C)(C)C (stereo not drawn) [Dermol 99, Trimethylhexyl Isononanoate]

Polarity ([1]; nonpolar lipids): 31.0 mN/m
Molecule: CCCCC(CC)COC(=O)CCCCCC(C)C (stereo not drawn) [Dermol 89, 2-Ethylhexyl Isononanoate]

Polarity ([1]; polar lipids): 17.8 mN/m
Molecule: CCCCCCCCCCCCCCCCCCOC(=O)CCCCCC [Tegosoft SH, Stearyl Heptanoate]

Polarity ([1]; nonpolar lipids): 31.6 mN/m
Molecule: CCCCCCCCOC(=O)CCCCCCCCCCCCCCC(C)C [Prisorine 2036, Octyl Isostearate]

Polarity ([1]; medium-polar lipids): 20.2 mN/m
Molecule: CCCCCCCC(=O)OCC(COC(=O)CCCCCCC)OC(=O)CCCCCCC [Trivent OCG, Tricaprylin]

Polarity ([1]; nonpolar lipids): 30.9 mN/m
Molecule: CCCCCCOC(=O)OCCCCCC [Dihexyl carbonate, Dihexyl Carbonate]

Polarity ([1]; nonpolar lipids): 43.8 mN/m
Molecule: CCCCCCCCCCCCCC(C)C [Solvent ICH, Isohexadecane]

Polarity ([1]; medium-polar lipids): 23.1 mN/m
Molecule: CCCCCCCCCCCCCCCC(=O)OCCCCCCCC [Cegesoft C24, Octyl Palmitate]

Polarity ([1]; medium-polar lipids): 29.7 mN/m
Molecule: CCCCCCCCCC(=O)OCCCC(C)C [Dermol IHD, Isohexyl decanoate]

Polarity ([1]; nonpolar lipids): 41.9 mN/m
Molecule: CCCCCCCCCCCCCCCCCC(C)C [Isoeicosane]
